# Patent EP0714404B1, “ANTI-INFLAMMATORY PEPTIDES” (CURATIVE TECHNOLOGIES, INC., priority 1993, dated 1995)
# Like-named read-outs stand apart in the source and are kept apart here. Residues, ends and D or L forms follow the SMILES beside them.
# Tests used:
# [1] = tested on: Arachidonic Acid Induced Myeloperoxidase Activity in Mouse Ear; assay: myeloperoxidase activity in AA-treated mouse ear tissue (marker for PMNs); format: in vivo, mice; conditions: minipump
# Description: Myeloperoxidase activity in ear tissue was measured as a marker for the presence or absence of polymorphonuclear leukocytes (PMNs) (Barone et al., 1991, J. Neurosci. Res. 29:336-345). After measurement of ear thickness, ears were dissected from the mice and homogenized in 50mM Tris-HCL, pH 7.4 at 4°C to give a 10% (w/v) homogenate. Aliquots of the homogenate were used to determine the amount of myeloperoxidase activity present in the tissue using o-dianisidine (Sigma Chem Co., St. Louis MO) and hydrogen peroxide as substrates and monitoring chromophore generation at 460 nm (Barone et al., 1991, J. Neurosci. Res. 29:336-345).
# neutrophils [2] = assay: neutrophil chemotaxis to f-Met-Leu-Phe (Neuroprobe chambers); format: cell-based; conditions: fluorescence at 530 nm, 1 hr; FIGURE 3
# Description: The ability of CT-112 (SEQ. ID NO: 1) to inhibit chemotaxis of neutrophils in response to a variety of agents was assessed using Neuroprobe chemotaxis chambers. For these assays, neutrophils were resuspended in Hank's balanced salt solution with Ca^2+ and Mg^2+ to give a 5 x 10^6 cells/ml suspension after the cells were labeled with 1',7'-bis(2-carboxyethyl)-5-(6)-carboxyfluorescein. The neutrophils were exposed to CT-112 (SEQ. ID NO: 1) for approximately 15 min prior to addition to the chemotaxis chambers. CT-112 (SEQ. ID NO: 1) was present in both the top and bottom of the chambers, and the chemoattractant, either f-Met-Leu-Phe, leukotriene B4 or interleukin-8, was added to the bottom of chamber. Cells which had migrated through the membrane were determined by fluorescence at 530 nm at 1 hr after initiation of the assay.
# neutrophils [3] = assay: neutrophil viability, trypan blue exclusion; format: cell-based; conditions: FIGURE 3
# From the text: In addition, CT-112 (SEQ. ID NO: 1) was not cytotoxic to neutrophils, as determined by viability testing using trypan blue exclusion (FIGURE 3).
# Inflammatory Cell Influx = assay: carrageenan-induced model of peritonitis, inflammatory cell influx; format: in vivo, Mice; conditions: pump 60 mg CT-112/kg/day
# Description: Mice (C57BL/6UAF, females, 12 weeks old) were implanted with Alzet mini pumps set to deliver 60 mg CT-112/kg/day. Six days post-implantation, the mice were challenged with an intraperitoneal injection of 0.3 ml of carrageenan in PBS (10 mg/ml). The peritoneal cavity was lavaged with 15 ml of Hank's Balanced Salt Solution (Ca^2+- and Mg^2+-free) at 24, 48 and 72 hr post-challenge. The lavage fluid was centrifuged (500 g, 5 min), fixed with LeukoStat fixative and stained with LeukoStat staining solution. The slides were analyzed under a microscope for the different types of inflammatory cells, such as macrophages, lymphocytes and neutrophils. At the 48-hr time point, 5 control mice were also lavaged.
# [4] = tested on: Delayed Type Hypersensitivity; format: in vivo, mice
# Description: CT-112 (SEQ. ID NO: 1) was tested for its ability to modulate the immune response in a mouse model of delayed hypersensitivity (Filipp et al., 1984, Allergy, 39: 499-507; Diezel et al., 1989 J. Invest. Dermatol. 93:322-326). The mice used in this study were 8-wk old hairless females (Jackson Laboratories). The mice were sensitized to a contact allergen (1-chloro-2,4-dinitrobenzene, DNCB) by painting the dorsothoracic region twice daily for 5 consecutive days with 50 µl of 0.5% DNCB in 75% acetone:25% vegetable oil. The animals were allowed to rest for 24 hr prior to challenge with DNCB. On the sixth day after initiation of the sensitization treatments, the animals were challenged with 50 µl of DNCB solution applied to the left ear. After 24 hrs, the ear thickness was determined and compared to the unchallenged ear.
# The treatment groups were as follows: • a) PBS control; • b) Prednisone (intraperitoneal injection of 25 mg/kg, 2 hr prior to challenge); • c) 7-day pump (60 mg CT-112/kg/24 hr); • d) CT-112 (intraperitoneal injections of 60 mg/kg/injection at 3, 1, and 0.25 hr prior to challenge and 3, 6 and 21 hr post-challenge); • e) DMSO control (topical application of 50 µl at 3, 1 and 0.25 hr prior to challenge; and • f) CT-112 in DMSO (20 mg/ml, topical application of 50 µl at 3, 1, and 0.25 hr prior to challenge and 3, 6 and 21 hr post-challenge).
# Salmonella = Salmonella reverse mutation assay; format: cell-based; conditions: 100-5,000 µg/ml, with or without rat liver microsomal enzyme activation
# From the text: The mutagenic potential of CT-112 (SEQ. ID NO: 1) has been assessed.
# [5] = tested on: mouse bone marrow polychromatic erythrocyte; assay: mouse bone marrow polychromatic erythrocyte micronucleus assay; format: in vivo; conditions: 62.5, 125 and 250 mg/kg; after 24, 48 or 72 hr
# acute toxicity in rats = format: in vivo; conditions: rats, 100, 500 or 1,000 mg/kg
# Description: Rats were dosed with CT-112 (SEQ. ID NO: 1) at 100, 500 or 1,000 mg/kg. […] All rats returned to normal appearance the day after treatment.
structure (smiles),measurement,setting,value
"CC(C)[C@H](NC(=O)[C@H](CCC(N)=O)NC(=O)[C@H](CO)NC(=O)[C@@H](NC(=O)[C@@H](N)[C@@H](C)O)[C@@H](C)O)C(=O)N[C@@H](CCCNC(=N)N)C(=O)N1CCC[C@H]1C(=O)N[C@@H](CCCNC(=N)N)C(=O)O [CT-112, Thr-Thr-Ser-Gln-Val-Arg-Pro-Arg] (H-TTSQVRPR-OH)",Myeloperoxidase Activity,[1]; 0.05 mg/animal/day,19.6 ± 15.6 µmole of chromophore formed/min
same,Myeloperoxidase Activity,[1]; 0.1 mg/animal/day,17.0 ± 9.6 µmole of chromophore formed/min
same,Myeloperoxidase Activity,[1]; 1.0 mg/animal/day,14.7 ± 13.3 µmole of chromophore formed/min
same,chemotactic migration of neutrophils to f-Met-Leu-Phe,neutrophils [2],effectively inhibited
same,"cytotoxicity to neutrophils, viability",neutrophils [3],not cytotoxic
same,Absolute Cell Number Lymphocytes,Inflammatory Cell Influx; 24 hr post carrageenan,16.9 ± 5.9
same,Absolute Cell Number Macrophages,Inflammatory Cell Influx; 24 hr post carrageenan,19.5 ± 10
same,Absolute Cell Number Neutrophils,Inflammatory Cell Influx; 24 hr post carrageenan,106 ± 29
same,Absolute Cell Number Lymphocytes,Inflammatory Cell Influx; 48 hr post carrageenan,12.5 ± 7.6
same,Absolute Cell Number Macrophages,Inflammatory Cell Influx; 48 hr post carrageenan,126 ± 43
same,Absolute Cell Number Neutrophils,Inflammatory Cell Influx; 48 hr post carrageenan,134 ± 77
same,Absolute Cell Number Lymphocytes,Inflammatory Cell Influx; 72 hr post carrageenan,45.1 ± 42
same,Absolute Cell Number Macrophages,Inflammatory Cell Influx; 72 hr post carrageenan,255 ± 125
same,Absolute Cell Number Neutrophils,Inflammatory Cell Influx; 72 hr post carrageenan,48.4 ± 28
same,Thickness Difference (Left-Right),"[4]; 7-day pump, 60 mg CT-112/kg/24 hr",0.00087 ± 0.000398 in
same,Thickness Difference (Left-Right),"[4]; ip 60 mg/kg/injection at 3, 1, 0.25 hr prior and 3, 6, 21 hr post-challenge",0.00169 ± 0.000643 in
same,Thickness Difference (Left-Right),"[4]; topical, 20 mg/ml in DMSO, 50 µl at 3, 1, 0.25 hr prior and 3, 6, 21 hr post-challenge",0.0035 ± 0.000408 in
same,number of revertants (histidine independent growth),Salmonella,did not cause an increase
same,micronuclei,[5],did not induce a significant increase
same,lesions at necropsy,acute toxicity in rats,No lesions were visible
same,mean body weight or mean body weight gain,acute toxicity in rats; control vs treated,no statistical differences
same,clinical effects,"acute toxicity in rats; several rats at 500 and 1,000 mg/kg, day of treatment","Transient clinical effects (hypoactivity, hypersensitiviy, staggered gait, cyanosis and absence of righting reflex)"
